From US11576930B2, “Methods and compositions for treatment of multi-drug resistant tumors” (priority 2017, dated 2023)

Key:
Hep3B = assay: Cell morphology and MTT cytotoxicity of agent alone; format: cell-based, human; set-up: dose or concentration left out as unconfirmed; conditions: AZI
Procedure: Then, HCC97L (3×10^3 well^−1), Hep3B (4×10^3 well^−1), PLC (4×10^3 well^−1), CNE1 (1.75×10^3 well^−1), CNE2 (3.5×10^3 well^−1), HONE1 (2×10^3 well^−1) and SUNE1 (2×10^3 well^−1) were seeded in 96-well plates (1004/well) and allowed to attach for 24 h. After that, human liver cancer cell lines were treated with 3 chemotherapeutic drugs separately at different concentrations (as indicated in FIG. 2) in the presence of the anti-mycoplasma antibiotics for 48 h. […] 104 of MTT (5 mg/ml final concentration; MP Biomedicals, LLC, CA, USA) was added to each well. After 4 h incubation at 37° C., the medium was removed and 100 μL/well DMSO (GBCBIO Technologies, Guangzhou, China) was added. The plates were mixed by a thermomixer for 5 min at RT. Absorbance measures were made in a microplate reader (iMark, Bio-Rad Laboratories, CA, USA) at 570/655 nm.

HCC97L cells [1] = assay: MTT assay, sensitivity to chemotherapeutic drugs with anti-mycoplasma agent or A2PP; format: cell-based, human; conditions: non-cytotoxic concentration of MXF or AZI; chemotherapeutic 48 h
Procedure: (§1) Then, HCC97L (3×10^3 well^−1), Hep3B (4×10^3 well^−1), PLC (4×10^3 well^−1), CNE1 (1.75×10^3 well^−1), CNE2 (3.5×10^3 well^−1), HONE1 (2×10^3 well^−1) and SUNE1 (2×10^3 well^−1) were seeded in 96-well plates ([…]) and allowed to attach for 24 h. After that, human liver cancer cell lines were treated with 3 chemotherapeutic drugs separately at different concentrations (as indicated in FIG. 2) in the presence of the anti-mycoplasma antibiotics for 48 h. […] In the P37-ANXA2 interruption experiment, A2PP was dissolved in DMSO and HCC97L cells were pretreated with A2PP (as indicated in FIG. 3) 24 h before GEM or MX treatment. […] (5 mg/ml final concentration; MP Biomedicals, LLC, CA, USA) was added to each well. After 4 h incubation at 37° C., the medium was removed and 100 μL/well DMSO (GBCBIO Technologies, Guangzhou, China) was added. The plates were mixed by a thermomixer for 5 min at RT. Absorbance measures were made in a microplate reader (iMark, Bio-Rad Laboratories, CA, USA) at 570/655 nm.

Hep3B cells = assay: MTT assay, sensitivity to chemotherapeutic drugs with anti-mycoplasma antibiotics; format: cell-based, human; conditions: non-cytotoxic concentration of MXF or AZI; chemotherapeutic 48 h
Procedure: as §1

PLC/PRF/5 cell line = assay: as above; format: cell-based, human; conditions: non-cytotoxic concentration of MXF or AZI; chemotherapeutic 48 h
Procedure: as §1

mycoplasma = assay: Mycoplasma detection using quantitative real-time PCR in cancer cell lines; format: cell-based; set-up: dose or concentration left out as unconfirmed; conditions: AZI
Procedure: Total DNA was extracted from 5×10^5 cells from each group by digestion at 70° C. for 10 min in 0.5% Tween-20, 50 mM Tris (pH 8.5), 1 mM EDTA, and 200 mg/L proteinase K, followed by phenol/chloroform/isoamyl alcohol extraction and sodium acetate precipitation. DNA precipitates were washed with 70% ethanol, dried, and dissolved in 20 μL of sterile water. The extracted DNA ([…], 1.2 μg) from the cells was added to […] of the reaction solution, containing PCR buffer (SuperRealPreMix, SYBR Green; Tiangen Biotech, Beijing, China) and primers pairs for mycoplasma detection and reference control (β-actin) with a final concentration of 0.12 μM for each primer, to a total volume of 10 μL. Quantitative real-time PCR (qPCR) was performed as the following profile: 95° C. for 1 min (preincubation), followed by 40 cycles at 95° C. for 10 s (denaturation), 60° C. for 30 s (annealing and elongation). The primers (Table 1) for mycoplasma detection were gifts from Prof. Zhongning Lin (School of Public Health, Xiamen University) including two forward primers for universal mycoplasmal detection, one forward primer to detect Myco M. pirum., one for Myco A. laidlawii. detection and a mix of degenerate primers to work as the reverse primers.

HCC97L cells [2] = assay: Cell morphology and MTT cytotoxicity of agent alone; format: cell-based, human; set-up: dose or concentration left out as unconfirmed; conditions: AZI
Procedure: as §1

HONE1 cells = format: cell-based, human
Procedure: as §1

SUNE1 cells = format: cell-based, human
Procedure: as §1

CNE2 = format: cell-based, human
Procedure: as §1

Row | sensitivity of HONE1 cells to 5-FU (HONE1 cells) | sensitivity of SUNE1 cells to 5-FU (SUNE1 cells) | sensitivity of CNE2 cells to 5-FU (CNE2) | SMILES | toxicity to cells (cell morphology and MTT assay) (Hep3B) | sensitivity of HCC97L cells to CDDP (HCC97L cells [1]) | sensitivity of HCC97L cells to GEM (HCC97L cells [1]) | sensitivity of HCC97L cells to MX (HCC97L cells [1]) | sensitivity of Hep3B cells to GEM (Hep3B cells) | sensitivity of Hep3B cells to MX (Hep3B cells) | efficacy of the anti-tumor drugs (CDDP, GEM, MX) in PLC/PRF/5 cell line (PLC/PRF/5 cell line) | anti-mycoplasma effect (Real Time PCR) (mycoplasma; HCC97L cells) | anti-mycoplasma effect (Real Time PCR) (mycoplasma; Hep3B cells) | anti-mycoplasma effect (Real Time PCR) (mycoplasma; PLC/PRF/5 cell line) | toxicity to cells (cell morphology and MTT assay) (HCC97L cells [2])
1 |  |  |  | CC[C@H]1OC(=O)[C@H](C)[C@@H](O[C@H]2C[C@@](C)(OC)[C@@H](O)[C@H](C)O2)[C@H](C)[C@@H](O[C@@H]2O[C@H](C)C[C@H](N(C)C)[C@H]2O)[C@](C)(O)C[C@@H](C)CN(C)[C@H](C)[C@@H](O)[C@]1(C)O [AZI, azithromycin] | non-toxic | enhanced | enhanced | enhanced | enhanced | enhanced | neither MXF nor AZI improved the efficacy | removed mycoplasma significantly | removed mycoplasma significantly | mycoplasma remained intact | non-toxic
2 | enhanced | improved | enhanced | COc1c(N2C[C@@H]3CCCN[C@@H]3C2)c(F)cc2c(=O)c(C(=O)O)cn(C3CC3)c12 [MXF, Moxifloxacin] |  |  |  |  |  |  |  |  |  |  | 
